Entries after “also recorded” stand apart in the source; their conditions may differ.
Tests used:
MMC = conditions: dog; cited from earlier work
[1] = test system: migrating motor complex (MMC); assay: Strain gauge animal model (Method F): migrating motor complex in fasted dogs; assay type: in vivo, beagle dogs; conditions: for effect on the migrating motor complex (MMC): fasted beagle dogs
Experimental: (§1) Gastrointestinal motility was measured for 24 hours by telemetry in freely moving beagle dogs instrumented with strain gauges on both the antrum and duodenum. The method utilized for the strain gauges was based upon that in the literature. (Edelbroek, M.; Schuurkes, J.; De Ridder, W.; Horowitz, M.; Dent, J.; Akkermans, L. Dig. Dis. Sci. 1995, 40, 901-911; Briejer, M. R.; Prins, N. H.; Schuurkes, J. A. Neurogastroenterol. Motil. 2001 13, 465-472.) Analogous methods that can be used are known. (Dog: Itohb, Z.; Honda, R.; Takeuchi, S.; Aizawa, I.; Takayanagi, R. Gastroenterol. Jpn. 1977, 12, 275-283; Iwai, T.; Nakamura, H.; Takanashi, H.; et al. Can. J. Physiol. Pharmacol. 1998, 76, 1103-1109; Dog and guinea pig, Ohno, T.; Kamiyama, Y.; Aihara, R.; Nakabayashi, T.; Mochiki, E.; Asao, T.; Kuwano, H. Neurogastroenterol. Motil. 2006, 18, 129-135; Rat: Bunce, K. T.; Elswood, C. J.; Ball, M. T. Br. J. Pharmacol. 1991, 102, 811-816; Guinea pig: Cooke, H. J.; Wang, Y. Z.; Frieling, T.; Wood, J. D. Am. J. Physiol. 1991, 261, G833-G840.)
Calibrated strain gauges (Schuurkes, J. A. J.; Van der Schee, E. J.; Grashuis, J. L.; Charbon, G. R. A. in Gastrointestinal Motility in Health and Disease; Duthie, H. L., Ed., MTP Press, Lancaster (UK), 1978, pp 647-654) and bipolar extracellular electrodes were implanted under aseptic conditions in each of four female beagle dogs. (Bass, P.; Wiley, J. N. J. Appl. Physiol. 1972, 32, 567-570.) The strain gauges were sutured onto the seromuscular layer parallel to the axis of the circular muscle, on the distal antrum (3 cm orad to the distal pyloric loop), proximal duodenum (3 cm and 6 cm aborad to the pylorus) and distal pyloric muscle loop. The bipolar extracellular electrodes were implanted onto the scrosal side of the distal antrum and proximal duodenum 2 cm orad and aborad to the pylorus. The lead wires were brought out via a subcutaneous tunnel in the left costal flank through a stab wound between the scapulae. Postsurgically, the lead wires were soldered to the connectors and protected appropriately.
In the same surgical incision, a gastrostomy and duodenostomy were performed. The gastrostomy was situated anteriorly in the midventral region between the lesser and greater curvature 2 cm orad to the nerve of Latarget and kept patent with a stainless steel cannula (internal diameter 1.4 cm, length 7.0 cm). The duodenostomy was situated 10 cm aborad to the pylorus and was kept patent with a cannula of smaller diameter (internal diameter 0.9 cm, length 7.5 cm). A thin tubing (outer diameter 2.2 mm) was pulled across the pylorus and attached to the caps of the gastric and duodenal cannulae in order to facilitate placement of the manometric assembly postsurgically. The greater omentum was wrapped around the cannulae to secure positioning and then the cannulae were tightly capped between experiments to permit normal feeding. Dogs were allowed to recover for at least two weeks prior to conduct of any experiments.
Intraluminal pressures were recorded with a manometric assembly incorporating a sleeve sensor with a 4.8 cm length (outer diameter 5.4 mm) to monitor pyloric pressure waves. (Dent, J. Gastroenterology 1976, 71, 263-267.) Four side holes were spaced at 1.6-cm intervals along the sleeve length. Side holes at each end of the sleeve were used to measure antral and duodenal pressures and transmucosal potential difference (TMPD) simultaneously. (Arndorfer, R. C.; Stef, J. J.; Doss, W. J.; Linehan, J. H.; Hogan, W. J. Gastroenterol. 1977, 73, 23-27.) Two additional side holes were placed 3.3 and 1.6 cm orad to the proximal end of the sleeve (antral sites) and another two side holes were placed 1.6 and 3.3 cm aborad to the distal end of the sleeve (duodenal sites). All channels were perfused with degassed distilled water at 0.3 mL/min, except for the side holes used to measure the antroduodenal TMPD, which were perfused with saline. […]

[2] = test system: post-prandial gastrointestinal activity; assay: Strain gauge animal model (Method F): post-prandial gastrointestinal activity in fed dogs; assay type: in vivo, beagle dogs
Experimental: as §1, with “G833-G840.) […]” for “G833-G840.)”
Intraluminal pressures were recorded with a manometric assembly incorporating a sleeve sensor with a 4.8 cm length (outer diameter 5.4 mm) to monitor pyloric pressure waves. […]

[3] = test system: fundic tone / gastric accommodation; assay: Animal model of fundic accommodation (Method E, barostat, milk meal); assay type: in vivo, Beagle dogs
Experimental: Fundic accommodation in response to a 200 mL milk meal was measured using a barostat. This can be considered as a model for functional dyspepsia, at least some occurrences of which is known to be a result of poor gastric accommodation (Tack, J.; Piessevaux, H.; Coulie, B.; Caenepeel, P.; Janssens, J. Gastroenterology 1998, 115, 1346-1352; DiStefano, M.; Micelli, E.; Mazzocchi, S.; Tana, P.; Corazza, G. R. Eur. Rev. Med. Pharmacol. Sci. 2005, 9, 23-28; Kindt, S.; Tack, J. Gut 2006, 55, 1685-1691; van den Elzen, B. D.; Boeckxstaens, G. E. Aliment. Pharmacol. Ther. 2006, 23, 1499-1510.). The described method is based upon a literature method. (Meulemans A. Schuurkes J. Neurogastroenterol. Motil. 1995, 7, 151-155.) The use of gallbladder volume has been linked to the motilin effect in functional dyspepsia and also can be used as a biomarker to test the effect of an antagonist on FD in humans. (Kamerling, I. M. C.; Van Haarst, A. D.; De Kam, M. L.; Cohen, A. F.; Masclee, A. A. M.; Burggraaf, J. Aliment, Pharmacol. Ther. 2004, 19, 797-804.) Other methods can also be utilized for this assessment and have been reviewed. (DeSchepper, H. U.; Cremonini, F.,; Chitkara, D.; Camilleri, M. Neurogastroenterol. Motil. 2004, 16, 275-285.) The dog is often used as an appropriate model for GI diseases due to the similarity in the alimentary tracts between dogs and humans. Additionally, the dog motilin receptor has been identified and characterized with the expression profile determined. It shares 71% homology to the human receptor and 72% to the rabbit receptor. (Ohshiro, H.; Nonaka, M.; Ichikawa, K. Regul. Pept. 2008, 146, 80-87.)
Beagle dogs were trained to stand quietly in Pavlov frames. Each was implanted using the following procedure with a gastric and duodenal cannula under general anesthesia with standard aseptic precautions. After a medium laparotomy, an incision was made through the gastric wall in the longitudinal direction between the greater and the lesser curvature, 2 cm above the nerves of Latarjet. The gastric cannula (diameter 18 mm) was secured to the gastric wall by means of an appropriate suture and then brought out via a stab wound at the left quadrant of the hypochondrium. The duodenal cannula (diameter 4 mm) was implanted at about 12 cm distal to the pylorum. An incision of approximately 1 cm was made through the duodenal wall 3 cm distally from the site of implantation. The cannula was brought into the duodenum though this incision. The top of the cannula was brought out of the duodenal wall at the place of implantation and secured to the wall via suture. Afterwards, the duodenum was closed and the duodenal cannula was brought out via a stab wound at the right quadrant of the hypochondrium. Dogs were allowed a recovery period of 2 weeks during which they were treated with antibiotics.
Variations in gastric tone were measured by recording changes in the volume of air within an intragastric bag maintained at constant pressure (6 mm Hg) by a barostat. The barostat consists of an air injection system which is connected by a double-lumen polyvinyl tube to an ultrathin flaccid polyethylene bag with maximum volume of approximately 700 mL. Gastric tonic contractions cause the barostat to withdraw air to maintain the pressure, while relaxation triggers air injection to maintain pressure. In that manner, intrabag volume is an inverse measure of proximal gastric tone. Differences in gastric tone were recorded using a computer. […]

| Compound | effect on the MMC (MMC) | effect on the migrating motor complex (MMC) ([1]; 0.30 mg/kg, i.v.) | contraction amplitude (CA), % of baseline CA ([1]; 1.0 mg/kg i.v., after 4 h) [%] | contraction amplitude (CA), % of baseline CA ([1]; 1.0 mg/kg i.v., over the first hour) [%] | time to first MMC ([1]; 1.0 mg/kg i.v., controls 99±15 min, P<0.01, n=4, mean±SEM) [min] | effect on the migrating motor complex (MMC) ([1]; 1 mg/kg, i.v., N=6) | phase III activity of the MMC ([1]; 0.10, 0.30, 1.0 mg/kg, i.v., after overnight fast) | time until CA returned to baseline levels ([1]; 0.10 and 0.30 mg/kg doses, n=2) [h] | post-prandial CA, % of pre-drug baseline ([2]; 0.30 mg/kg i.v., 2 h after standard 75 g meal, during first hour, n=2, vehicle 106±10%) [%] | post-prandial activity ([2]; 0.30 mg/kg, i.v., fed dogs) | gastric accommodation in response to the meal ([3]; 0.30 mg/kg i.v. bolus, continuous motilin infusion) | effect on motilin-induced fundic contraction ([3]; 0.30 mg/kg i.v., exogenous motilin 0.010 mg/kg/h i.v.) | AUC of fundic relaxation (0-to-5 min.) ([3]; 0.30 mg/kg i.v., motilin infusion 0.010 mg/kg/h i.v., milk meal, vehicle 18.7±3.3, n=4, p<0.05) [mL/h] | natural relaxation of the stomach in response to a meal (baseline, no motilin) ([3]; 0.1, 0.3 and 1.0 mg/kg, i.v., preliminary experiment) | motilin-induced increase in fundic tone, dose dependence ([3]; FIG. 3, cross-over design, N=6 dogs) |
| --- | --- | --- | --- | --- | --- | --- | --- | --- | --- | --- | --- | --- | --- | --- | --- |
| Cc1[nH]cnc1CN1CCc2c(c3ccccc3n2C)C1=O [Alosetron] | block the MMC |  |  |  |  |  |  |  |  |  |  |  |  |  |  |
| CC(C)[C@H]1NC(=O)[C@@H](Cc2cccc(C(F)(F)F)c2)NCCOc2ccccc2CCCNC(=O)[C@H](CN(C)C)NC1=O [Compound 502] |  | lesser delay of MMCs | 52±21 | 5±2 | 225 ± 31 | delay the migrating motor complex (MMC) | suppressed the regular occurrence of phase III activity of the MMC in a dose-dependent manner | 3 | 58±4 | briefly attenuate post-prandial activity | improved gastric accommodation | antagonized the effects of exogenous motilin; also recorded: antagonized the fundic contraction induced by infusion of exogenous motilin | 27.3 ± 3.5 | did not disturb this baseline phenomenon | prevented this increase in a dose-dependent manner |
